Measured values reported in patent US8269000B2, “Substituted pyrimidine and triazine compounds” (Gruenenthal GmbH, priority 2008, dated 2012).

target: T1, rat B1R (Rattus norvegicus, UniProt P97583); test: FLIPR Ca2+ functional study on bradykinin receptor 1 (rB1R CHO K1 cells); assay type: cell-based; conditions: % inhibition rat B1R at 10 μM
T1 construct: expressed in transfected cells; host or cells: CHO K1 cells
T1 sequence (P97583 1-337): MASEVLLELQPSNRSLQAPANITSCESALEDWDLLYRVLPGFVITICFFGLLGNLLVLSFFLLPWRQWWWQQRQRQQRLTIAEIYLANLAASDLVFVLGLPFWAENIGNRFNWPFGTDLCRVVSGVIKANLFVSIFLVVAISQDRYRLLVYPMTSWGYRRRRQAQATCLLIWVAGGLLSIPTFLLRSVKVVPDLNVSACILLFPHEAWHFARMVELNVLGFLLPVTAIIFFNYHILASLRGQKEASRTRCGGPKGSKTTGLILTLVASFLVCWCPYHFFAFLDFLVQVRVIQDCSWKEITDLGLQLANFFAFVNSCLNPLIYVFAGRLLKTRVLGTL
Method in brief: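 Antagonism was calculated as % of maximal inhibition of the Ca2+ rise triggered by agonist at EC80 (Lys-Des-Arg9-bradykinin for hB1R, Des-Arg9-bradykinin for rB1R), added 10-20 min after test compound (10 μM or serial dilutions for IC50) to Fluo-4-loaded transfected CHO K1 cells on FLIPR. Duplicates or triplicates, ≥2 independent runs.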

| Molecule | % inh. (rat B1R) 10 μM [%] |
| --- | --- |
| COc1cc(C)c(S(=O)(=O)N2CC(Oc3ccnc(N(C)CCN4CCC(c5ccccc5)(N5CCCC5)CC4)n3)C2)c(C)c1 [H_CC-070] | 53 |
| COc1cc(C)c(S(=O)(=O)N2c3ccccc3C[C@H]2COc2ccnc(N3CCC(N4CCN(C)CC4)CC3)n2)c(C)c1 [H_CC-018, (2S)-1-(4-methoxy-2,6-dimethylphenyl)sulfonyl-2-[[2-[4-(4-methyl-1-piperazinyl)-1-pipendinyl]-4-pyrimidinyl]oxymethyl]indoline] | 91 |
| COc1cc(C)c(S(=O)(=O)N(C)CCOc2nccc(N3CCN(CC4CCN(C)CC4)CC3)n2)c(C)c1 [G_CC-007, 4-methoxy-N,2,6-trimethyl-N-[2-[[4-[4-[(1-methyl-4-piperidinyl)methyl]-1-piperazin]-2-pyrimidinyl]oxy]ethyl]benzenesulfonamide] | 95 |
| COc1cc(C)c(S(=O)(=O)N2CCCCC2COc2nccc(N3CCC(c4cccs4)(N(C)C)CC3)n2)c(C)c1 (centres unmarked) [G_CC-070, [1-[2-[[1-[(4-methoxy-2,6-dimethyl-phenyl)sulfonyl]-piperidin-2-yl]-methoxy]-pyrimidin-4-yl]-4-thiophen-2-yl-pipendin-4-yl]-dimethyl-amine] | 95 |
| (1S,5R)-8-[4-[[(2S)-1-[(4-methoxy-2,6-dimethyl-phenyl)sulfonyl]-pyrrolidin-2-yl]-methoxy]-pyrimidin-2-yl]-3-pyridin-4-yloxy-8-azabicyclo[3.2.1]octane [H_CC-052] | 72 |
| COc1cc(C)c(S(=O)(=O)N2CCCCC2COc2ccnc(N3CCN(CC4CCN(C)CC4)CC3)n2)c(C)c1 (centres unmarked) [H_CC-006, 4-[[1-(4-methoxy-2,6-dimethylphenyl)sulfonyl-2-pipendinyl]methoxy]-2-[4-[(1-methyl-4-pipendinyl)methyl]-1-piperazinyl]pyrimidine] | 61 |

same assay, conditions: CHO-K1, % inhibition rat B1R at 10 μM, read-out: % inh. (rat B1R) 10 μM

| Molecule | inhibition at 10 µM [%] |
| --- | --- |
| COc1cc(C)c(S(=O)(=O)N(C)CCOc2nccc(N3CCC4(CCN(Cc5ccc(F)cc5)C4=O)CC3)n2)c(C)c1 [G_CC-045, N-[2-[[4-[3-[(4-fluorophenyl)methyl]-4-oxo-3,8-diazaspiro[4.5]decan-8-yl]-2-pyrimidinyl]oxy]ethyl]-4-methoxy-N,2,6-trimethylbenzenesulfonamide] | 96 |
| COc1cc(C)c(S(=O)(=O)N2c3ccccc3C[C@H]2COc2ccnc(N3CCN(C4CCN(C)CC4)CC3)n2)c(C)c1 [H_CC-027, (2S)-1-(4-methoxy-2,6-dimethylphenyl)sulfonyl-2-[[2-[4-(1-methyl-4-piperidinyl)-1-piperazinyl]-4-pyrimidinyl]oxymethyl]indoline] | 91 |
| COc1cc(C)c(S(=O)(=O)N2CCC[C@H]2COc2nccc(N(C)CCCN3CCC(c4ccccc4)(N(C)C)CC3)n2)c(C)c1 [G_CC-075, 3-(4-dimethylamino-4-phenyl-piperidin-1-yl)-propyl-[2-[[(2S)-1-[(4-methoxy-2,6-dimethyl-phenyl)sulfonyl]-pyrrolidin-2-yl]-methoxy]-pyrimidin-4-yl]-methyl-amine] | 104 |
| COc1cc(C)c(S(=O)(=O)N2CCCC(Oc3nccc(N4CCC(c5ccccc5)(N5CCCC5)CC4)n3)C2)c(C)c1 (centres unmarked) [G_CC-114, 2-[1-[(4-methoxy-2,6-dimethyl-phenyl)sulfonyl]-piperidin-3-yl]oxy-4-(4-phenyl-4-pyrrolidin-1-yl-piperidin-1-yl)-pyrimidine] | 54 |
| COc1cc(C)c(S(=O)(=O)N2CC(Oc3ccnc(N4CCCN(Cc5ccccn5)CC4)n3)C2)c(C)c1 [H_CC-077, 1-[4-[1-[(4-methoxy-2,6-dimethyl-phenyl)sulfonyl]-azetidin-3-yl]oxy-pyrimidin-2-yl]-4-(pyridin-2-yl-methyl)-[1,4]diazepan] | 58 |
| COc1cc(C)c(S(=O)(=O)N(C)CCOc2nccc(N3CCC4(CC3)C(=O)NCN4c3ccccc3)n2)c(C)c1 [G_CC-030, 4-methoxy-N,2,6-trimethyl-N-[2-[[4-(1-oxo-4-phenyl-2,4,8-triazaspiro[4.5]decan-8-yl)-2-pyrimidinyl]oxy]ethyl]benzenesulfonamide] | 79 |
| COc1cc(C)c(S(=O)(=O)N2CCCCC2COc2nccc(N3CCN(C)CC3)n2)c(C)c1 (centres unmarked) [G_CC-009, 2-[[1-(4-methoxy-2,6-dimethylphenyl)sulfonyl-2-piperidinyl]methoxy]-4-(4-methyl-1-piperazinyl)pyrimidine] | 63 |
| COc1cc(C)c(S(=O)(=O)N2CCCC(Oc3ccnc(N(C)CCN4CCC(c5ccccc5)(N(C)C)CC4)n3)C2)c(C)c1 (centres unmarked) [H_CC-065, 2-(4-dimethylamino-4-phenyl-piperidin-1-yl)-ethyl-[4-[1-[(4-methoxy-2,6-dimethyl-phenyl)sulfonyl]-piperidin-3-yl]oxy-pyrimidin-2-yl]-methyl-amine] | 52 |
| COc1cc(C)c(S(=O)(=O)N2CC(Oc3nccc(N4CCN(CC5CCN(C)CC5)CC4)n3)C2)c(C)c1 [G_CC-077, 2-[1-[(4-methoxy-2,6-dimethyl-phenyl)sulfonyl]-azetidin-3-yl]oxy-4-[4-[(1-methyl-piperidin-4-yl)methyl]-piperazin-1-yl]-pyrimidine] | 92 |
| COc1cc(C)c(S(=O)(=O)N2CCCC(Oc3ccnc(N(C)CCCN4CCC(c5ccccc5)(N(C)C)CC4)n3)C2)c(C)c1 (centres unmarked) [H_CC-073, 3-(4-dimethylamino-4-phenyl-piperidin-1-yl)-propyl-[4-[1-[(4-methoxy-2,6-dimethyl-phenyl)sulfonyl]-piperidin-3-yl]oxy-pyrimidin-2-yl]-methyl-amine] | 55 |
| CCCCC1(N(C)C)CCN(c2ccnc(OC[C@@H]3CCCN3S(=O)(=O)c3c(C)cc(OC)cc3C)n2)CC1 [G_CC-087, [4-butyl-1-[2-[[(2S)-1-[(4-methoxy-2,6-dimethyl-phenyl)sulfonyl]-pyrrolidin-2-yl]-methoxy]-pyrimidin-4-yl]-piperidin-4-yl]-dimethyl-amine] | 101 |
| COc1cc(C)c(S(=O)(=O)N2CCC[C@@H]2COc2ccnc(N3CCCC3Cc3ccccn3)n2)c(C)c1 (stereo partly drawn) [H_CC-084, 4-[[(2R)-1-[(4-methoxy-2,6-dimethyl-phenyl)sulfonyl]-pyrrolidin-2-yl]-methoxy]-2-[2-(pyridin-2-yl-methyl)-pyrrolidin-1-yl]-pyrimidine] | 55 |
| COc1cc(C)c(S(=O)(=O)N(C)CCOc2nccc(N3CCC4(CC3)C(=O)NCC4c3cccc(C(F)(F)F)c3)n2)c(C)c1 (centres unmarked) [G_CC-043, 4-methoxy-N,2,6-trimethyl-N-[2-[[4-[4-oxo-1-[3-(trifluoromethyl)phenyl]-3,8-diazaspiro[4.5]decan-8-yl]-2-pyrimidinyl]oxy]ethyl]benzenesulfonamide] | 70 |
| COc1cc(C)c(S(=O)(=O)N(C)CCOc2nccc(N(C)CCN3CCC(c4ccccc4)(N4CCCC4)CC3)n2)c(C)c1 [G_CC-119, 4-methoxy-N,2,6-trimethyl-N-[2-[4-[methyl-[2-(4-phenyl-4-pyrrolidin-1-yl-piperidin-1-yl)-ethyl]-amino]-pyrimidin-2-yl]oxy-ethyl]benzenesulfonic acid amide] | 79 |
| COc1cc(C)c(S(=O)(=O)N(C)C(COc2nccc(N3CCC(CCCN4CCCC4)(c4cccnc4)CC3)n2)c2ccccc2)c(C)c1 (centres unmarked) [G_CC-108, 4-methoxy-N,2,6-trimethyl-N-[1-phenyl-2-[4-[4-pyridin-3-yl-4-(3-pyrrolidin-1-yl-propyl)-piperidin-1-yl]-pyrimidin-2-yl]oxy-ethyl]-benzenesulfonic acid amide] | 102 |
| COc1cc(C)c(S(=O)(=O)N(C)CCOc2nccc(N3CCC(c4ccccc4)(N4CCCC4)CC3)n2)c(C)c1 [G_CC-116, 4-methoxy-N,2,6-trimethyl-N-[2-[4-(4-phenyl-4-pyrrolidin-1-yl-piperidin-1-yl)-pyrimidin-2-yl]oxy-ethyl]benzenesulfonic acid amide] | 64 |
| COc1cc(C)c(S(=O)(=O)N2CCCCC2COc2ccnc(N3CCC(Oc4ccccn4)CC3)n2)c(C)c1 (centres unmarked) [H_CC-079, 4-[[1-[(4-methoxy-2,6-dimethyl-phenyl)sulfonyl]-piperidin-2-yl]-methoxy]-2-(4-pyridin-2-yloxy-piperidin-1-yl)-pyrimidine] | 73 |
| COc1cc(C)c(S(=O)(=O)N(C)C(COc2nccc(N3[C@@H]4CC[C@H]3CC(Oc3cccnc3)C4)n2)c2ccccc2)c(C)c1 (stereo partly drawn) [G_CC-107, 4-methoxy-N,2,6-trimethyl-N-[1-phenyl-2-[4-[(1S,5R)-3-pyridin-3-yloxy-8-azabicyclo[3.2.1]octan-8-yl]-pyrimidin-2-yl]oxy-ethyl]-benzenesulfonic acid amide] | 94 |
| COc1cc(C)c(S(=O)(=O)N2CC(Oc3nccc(N4CCC(CCN5CCCCC5)CC4)n3)C2)c(C)c1 [G_CC-129, 2-[1-[(4-methoxy-2,6-dimethyl-phenyl)sulfonyl]-azetidin-3-yl]oxy-4-[4-(2-piperidin-1-yl-ethyl)-piperidin-1-yl]-pyrimidine] | 73 |
| COc1cc(C)c(S(=O)(=O)N(C)C(COc2nccc(N3CCC(C)(N4CCOCC4)CC3)n2)c2ccccc2)c(C)c1 (centres unmarked) [G_CC-137, 4-methoxy-N,2,6-trimethyl-N-[2-[4-(4-methyl-4-morpholin-4-yl-piperidin-1-yl)-pyrimidin-2-yl]oxy-1-phenyl-ethyl]benzenesulfonic acid amide] | 77 |
